Data as given in patent US20030125363A1, “Riluzole and alpha-tocopherol combination” (priority 1998, published 2003).

System: patients suffering from ALS
[1] = after 12 months of treatment, Munsat functional states

Protocol: The study was carried out in 289 patients in total aged over 18 years, who have been suffering from ALS for less than 5 years and in whom the vital capacity/theoretical normal vital capacity ratio is greater than or equal to 60% (the vital capacity is a routine conventional measurement of the respiratory function also called lung function test).
The patients are divided into 2 groups:
group 1: 145 patients treated with 100 mg/day of riluzole by the oral route and 1000 mg/day of α-tocopherol by the oral route,
group 2: 144 patients treated with 100 mg/day of riluzole by the oral route and placebo.
The patients are monitored for a year. The results are measured on functional scales (Munsat's functional states (RIVIERE et al., Arch. Neurol., 55, 526 (1998)), a visual analog scale (VAS) for fatigability (LACOBLEZ et al., The Lancet, 347, 1425 (1996); BENSIMON et al., New England Journal of Medicine, 330, 585 (1994)) and plasma concentration of malondialdehyde, a biochemical marker for oxidative stress (FAVIER, Analysis of free radicals in biological systems, Birk Hauser, Basel/Switzerland, 1995 p. 100-117).
The Munsat functional state A relates to patients in an average or mild state:
average state: average deficiency in 3 regions (speech, arm and leg), functionally independent in speech, activities of the upper extremities in daily and ambulatory life,
mild state: average deficiency in 3 regions or mild to severe deficiency in one region while the other two regions are normal or slightly affected.
The Munsat functional state B relates to patients in the severe or final state:
severe state: need for assistance in 2 or 3 regions, dysarthric speech and/or patients requiring assistance to walk and/or requiring assistance for the activities of the upper extremities in daily life,
final state: nonfunctional use of at least 2 regions and mild or nonfunctional use of the third region.
The progression of the functional states A and B is determined at the time of inclusion (M0) and after 12 months of treatment (M12).

**Q.** What does the source list for `Nc1nc2ccc(OC(F)(F)F)cc2s1` [RILUZOLE AND PLACEBO, 2-amino-6-trifluoromethoxybenzothiazole]?
**A.** Condition after treatment (M12): state A (Munsat functional state A (average or mild), after 12 months of treatment, riluzole 100 mg/day oral, α-tocopherol 1000 mg/day oral or placebo): 56 number of patients; Condition on inclusion (M0): state A (Munsat functional state A (average or mild), baseline at inclusion M0, oral treatment): 109 number of patients; Condition after treatment (M12): state B (Munsat functional state B (severe or final), after 12 months of treatment, riluzole 100 mg/day oral, α-tocopherol 1000 mg/day oral or placebo): 63 number of patients; Condition on inclusion (M0): state B (Munsat functional state B (severe or final), baseline at inclusion M0, oral treatment): 10 number of patients; patients who did not exhibit any change [1]: 66 patients; patients who did not exhibit any change (percent) [1]: 55.3%; patients who exhibited a worsening of the disease [1]: 53 patients; patients who exhibited a worsening of the disease (percent) [1]: 44.5%
